Data published in PMC137065 (Journal of Biology, 2002).
Several values for one entry are separate records, joined by “and”; a condition that tells them apart may be missing. Equal entries are not always repeated. Where two headings read alike, the source gives them in different places. Each block holds one compound with its values, some of them ahead of it.

Experiments:
Hh signaling = assay: luciferase-based reporter assay of Hh signaling in C3H10T1/2 cells; assay type: cell-based; settings: for inhibition of Hh protein-activated versus agonist-activated cells: Hh protein (10 nM) or Hh-Ag 1.2 (200 nM); for effect on pathway activation by the agonist: cells activated by Hh-Ag 1.2 (200 nM)
HA-tagged Smo = HA-tagged Smo (Mus musculus, UniProt P56726); assay: whole cell/immunocomplex binding assay, Smo-transfected 293T cells; settings: unlabeled competitor at 5 μM, 37°C, 2 hours
murine Smo = murine Smo (Mus musculus, UniProt P56726); assay: filtration membrane-binding assay, Smo-containing membranes from 293T cells
[1] = molecular target: murine Smo W539L (Smo^act) (Mus musculus, UniProt P56726, W539L); assay: filtration membrane-binding assay, Smo^act-containing membranes
Smo^act-expressing cells = settings: ref [11],[17]; cited from earlier work
[2] = Smo^wt, competition with [3H]-Hh-Ag 1.5 (0.4 nM)
[3] = Smo^act, competition with [3H]-Hh-Ag 1.5 (0.4 nM)

Sequence of HA-tagged Smo (P56726 33-793): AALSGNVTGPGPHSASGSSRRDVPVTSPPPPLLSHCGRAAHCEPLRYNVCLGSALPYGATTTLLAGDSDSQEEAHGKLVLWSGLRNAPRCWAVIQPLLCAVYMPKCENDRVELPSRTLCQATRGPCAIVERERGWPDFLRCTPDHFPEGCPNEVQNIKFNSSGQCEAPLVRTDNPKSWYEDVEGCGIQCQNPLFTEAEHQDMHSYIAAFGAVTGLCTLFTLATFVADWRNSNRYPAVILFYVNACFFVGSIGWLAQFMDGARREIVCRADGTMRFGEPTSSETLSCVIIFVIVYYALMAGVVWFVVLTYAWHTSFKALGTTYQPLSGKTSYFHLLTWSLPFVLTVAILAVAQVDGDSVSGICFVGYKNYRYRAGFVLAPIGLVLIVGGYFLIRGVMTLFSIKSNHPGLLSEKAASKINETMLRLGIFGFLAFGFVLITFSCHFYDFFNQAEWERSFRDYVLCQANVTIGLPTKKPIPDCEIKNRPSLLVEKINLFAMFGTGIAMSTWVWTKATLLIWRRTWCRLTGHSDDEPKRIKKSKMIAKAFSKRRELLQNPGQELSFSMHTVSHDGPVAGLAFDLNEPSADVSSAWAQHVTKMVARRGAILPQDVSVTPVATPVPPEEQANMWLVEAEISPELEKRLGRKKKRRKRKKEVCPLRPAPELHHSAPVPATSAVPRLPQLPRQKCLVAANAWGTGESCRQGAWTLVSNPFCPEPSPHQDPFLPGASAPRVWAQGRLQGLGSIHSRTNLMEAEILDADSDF
Sequence of murine Smo (P56726 33-793): as above
Sequence of murine Smo W539L (Smo^act) (P56726 33-793 W539L): as the sequence (P56726 33-793) above, with W507L counted along it

EC50 (Hh signaling; cell-based reporter assay): ~1 nM and 1 nM | Ki (murine Smo; [2]): 0.52 nM and ~0.5 nM | Kd (murine Smo; saturation binding, approximately 45 hours at 37°C, one-site model): 0.37 nM | competition of [3H]-Hh-Ag 1.5 (2 nM) binding (murine Smo; unlabeled competitor at 2 μM): completely competed out | Ki [1, 3]: ~0.5 nM | affinity for Smo^act ([1]; kinetic and saturation binding assay, data not shown): affinity identical to that of Smo^wt
Compound: CNC1CCC(N(Cc2cccc(-c3ccncc3)c2)C(=O)c2sc3c(F)ccc(F)c3c2Cl)CC1 (stereo not shown) [Hh-Ag 1.5]
increase of potency by chemical modification (Hh signaling; relative to Hh-Ag 1.1): over 1000 fold | competition of [3H]-Hh-Ag 1.5 (5 nM) binding (HA-tagged Smo): complete absence of counts in the immunocomplex

Compound: CC1=C2C[C@H]3[C@@H](CC=C4C[C@@H](O)CC[C@@]43C)[C@@H]2CC[C@]12O[C@@H]1C[C@H](C)CN[C@H]1[C@H]2C [cyclopamine]
inhibition of Hh protein-activated versus agonist-activated cells (Hh signaling): differ in their sensitivity

Compound: C=C[C@@]1(C)CC(=O)[C@]2(O)[C@@]3(C)[C@@H](O)CCC(C)(C)[C@@H]3[C@H](O)[C@H](OC(C)=O)[C@@]2(C)O1 [forskolin]
inhibition of Hh protein-activated versus agonist-activated cells (Hh signaling): identical inhibition curves | effect on pathway activation by the agonist (Hh signaling): inhibitory

competition of [3H]-Hh-Ag 1.5 (5 nM) binding (HA-tagged Smo): significantly compete | Ki (murine Smo; [2]): 44 nM | competition of [3H]-Hh-Ag 1.5 (2 nM) binding (murine Smo; competitor at 10 μM): significantly compete | Ki on Smo^act- compared to Smo^wt-containing membranes [1]: seven-fold higher | Ki [1, 3]: 309 nM
Compound: COc1cccc(CN(C(=O)CC(C)(C)C)[C@H]2C[C@@H](C(=O)N3CCNCC3)N(Cc3ccc4c(c3)OCO4)C2)c1 [Cur61414]
inhibition of Hh protein-activated versus agonist-activated cells (Hh signaling): differ in their sensitivity | effect on pathway activation by the agonist (Hh signaling): inhibitory | potency on Smo^act-expressing cells (Smo^act-expressing cells): decreased potency

Compound: C[C@H]1CC[C@]2(NC1)O[C@H]1C[C@H]3[C@@H]4CC[C@H]5C[C@@H](O)CC[C@]5(C)[C@H]4CC[C@]3(C)[C@H]1[C@@H]2C [tomatadine]
Hh signaling activity (Hh signaling; described in words): inactive

Compound: CC1=C2C(=O)[C@H]3[C@@H](CC=C4C[C@@H](O)CC[C@@]43C)[C@@H]2CC[C@]12O[C@@H]1C[C@H](C)CN[C@H]1[C@H]2C [jervine]
inhibition of Hh protein-activated versus agonist-activated cells (Hh signaling): Identical results

Compound: CC1=C2C[C@H]3[C@@H](CC=C4CC(=O)CC[C@@]43C)[C@@H]2CC[C@]12O[C@@H]1C[C@H](C)CN(CCNC(=O)CCCCCNC(=O)CCc3ccccc3)[C@H]1[C@H]2C [KAAD-cyclopamine]
inhibition of Hh protein-activated versus agonist-activated cells (Hh signaling): Identical results | competition of [3H]-Hh-Ag 1.5 (5 nM) binding (HA-tagged Smo): significantly compete | Ki (murine Smo): 5.8 nM | competition of [3H]-Hh-Ag 1.5 (2 nM) binding (murine Smo): significantly compete | Ki [1]: 38.3 nM | Ki on Smo^act- compared to Smo^wt-containing membranes [1]: seven-fold higher | potency on Smo^act-expressing cells (Smo^act-expressing cells): decreased potency
